Results reported in ChEMBL document CHEMBL5338805, “Discovery of the First Subnanomolar PPARα/δ Dual Agonist for the Treatment of Cholestatic Liver Diseases” (J Med Chem, 2023).
Calls of active or inactive are those of the source.

How the values were obtained:
[1] = target: Bile acid receptor (Homo sapiens) (UniProt Q96RI1); experiment: Agonist activity at FXR (unknown origin) transfected in african green monkey COS7 cells assessed transactivation incubated at 1 uM for 16 hrs by luciferase assay; format: cell-based
Bile acid receptor (Homo sapiens), sequence (Q96RI1 whole entry): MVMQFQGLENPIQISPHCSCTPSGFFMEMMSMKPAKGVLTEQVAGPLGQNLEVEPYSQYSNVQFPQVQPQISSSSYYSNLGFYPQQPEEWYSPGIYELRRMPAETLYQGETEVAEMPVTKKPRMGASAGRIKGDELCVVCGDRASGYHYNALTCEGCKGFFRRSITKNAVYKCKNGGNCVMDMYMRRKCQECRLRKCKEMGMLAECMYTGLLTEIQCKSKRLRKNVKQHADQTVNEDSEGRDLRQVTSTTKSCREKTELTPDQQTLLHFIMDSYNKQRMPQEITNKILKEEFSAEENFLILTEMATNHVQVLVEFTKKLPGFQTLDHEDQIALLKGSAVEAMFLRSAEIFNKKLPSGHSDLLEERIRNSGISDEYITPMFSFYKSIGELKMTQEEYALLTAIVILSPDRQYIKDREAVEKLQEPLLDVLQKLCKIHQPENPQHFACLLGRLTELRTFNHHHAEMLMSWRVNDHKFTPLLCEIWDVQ

[2] = target: Nuclear receptor subfamily 1 group I member 2 (Homo sapiens, UniProt O75469); experiment: Agonist activity at PXR (unknown origin) transfected in african green monkey COS7 cells assessed transactivation incubated at 1 uM for 16 hrs by luciferase assay; format: cell-based; conditions: cos7, 16 h
Nuclear receptor subfamily 1 group I member 2, sequence (O75469 whole entry): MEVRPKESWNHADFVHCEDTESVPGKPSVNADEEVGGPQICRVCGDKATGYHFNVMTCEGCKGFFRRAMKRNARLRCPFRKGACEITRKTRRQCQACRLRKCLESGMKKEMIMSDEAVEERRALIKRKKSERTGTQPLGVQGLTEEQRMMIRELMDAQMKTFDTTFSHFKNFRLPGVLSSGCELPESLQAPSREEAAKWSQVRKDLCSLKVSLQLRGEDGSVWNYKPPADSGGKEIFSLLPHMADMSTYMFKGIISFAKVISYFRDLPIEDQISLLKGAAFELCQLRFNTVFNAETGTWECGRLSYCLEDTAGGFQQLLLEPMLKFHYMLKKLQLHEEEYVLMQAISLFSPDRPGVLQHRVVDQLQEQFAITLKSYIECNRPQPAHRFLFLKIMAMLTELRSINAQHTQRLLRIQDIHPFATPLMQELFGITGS

[3] = target: Retinoic acid receptor alpha (Homo sapiens) (UniProt P10276); experiment: Agonist activity at RARalpha (unknown origin) transfected in african green monkey COS7 cells assessed transactivation incubated at 1 uM for 16 hrs by luciferase assay; format: cell-based
Retinoic acid receptor alpha (Homo sapiens), sequence (P10276 whole entry): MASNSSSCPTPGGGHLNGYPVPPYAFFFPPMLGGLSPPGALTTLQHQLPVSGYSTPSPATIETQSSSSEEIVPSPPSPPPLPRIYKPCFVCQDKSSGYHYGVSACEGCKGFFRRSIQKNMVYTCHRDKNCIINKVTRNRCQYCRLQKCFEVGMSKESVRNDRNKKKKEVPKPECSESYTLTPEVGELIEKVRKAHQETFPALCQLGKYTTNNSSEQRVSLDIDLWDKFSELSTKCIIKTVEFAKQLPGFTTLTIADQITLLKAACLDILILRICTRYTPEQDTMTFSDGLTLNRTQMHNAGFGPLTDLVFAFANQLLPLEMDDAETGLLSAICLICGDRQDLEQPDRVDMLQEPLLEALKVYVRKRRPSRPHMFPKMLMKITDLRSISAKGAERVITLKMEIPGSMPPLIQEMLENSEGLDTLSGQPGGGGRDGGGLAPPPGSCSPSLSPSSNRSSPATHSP

[4] = target: Retinoic acid receptor gamma (Homo sapiens) (UniProt P13631); experiment: Agonist activity at RARgamma (unknown origin) transfected in african green monkey COS7 cells assessed transactivation incubated at 1 uM for 16 hrs by luciferase assay; format: cell-based
Retinoic acid receptor gamma (Homo sapiens), sequence (P13631 whole entry): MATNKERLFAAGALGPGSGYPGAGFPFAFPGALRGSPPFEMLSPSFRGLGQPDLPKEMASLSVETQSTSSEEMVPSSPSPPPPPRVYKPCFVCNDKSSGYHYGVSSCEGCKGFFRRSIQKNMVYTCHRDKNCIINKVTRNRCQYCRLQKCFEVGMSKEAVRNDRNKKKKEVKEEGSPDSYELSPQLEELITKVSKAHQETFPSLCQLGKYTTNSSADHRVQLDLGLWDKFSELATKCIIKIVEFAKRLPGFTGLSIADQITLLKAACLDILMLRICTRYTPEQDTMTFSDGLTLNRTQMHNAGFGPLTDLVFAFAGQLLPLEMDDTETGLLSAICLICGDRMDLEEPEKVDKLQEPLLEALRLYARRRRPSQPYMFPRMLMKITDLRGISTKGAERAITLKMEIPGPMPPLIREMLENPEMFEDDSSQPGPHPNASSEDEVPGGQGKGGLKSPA

[5] = target: Retinoic acid receptor RXR-alpha (Homo sapiens) (UniProt P19793); experiment: Agonist activity at RXRalpha (unknown origin) transfected in african green monkey COS7 cells assessed transactivation incubated at 1 uM for 16 hrs by luciferase assay; format: cell-based
Retinoic acid receptor RXR-alpha (Homo sapiens), sequence (P19793 whole entry): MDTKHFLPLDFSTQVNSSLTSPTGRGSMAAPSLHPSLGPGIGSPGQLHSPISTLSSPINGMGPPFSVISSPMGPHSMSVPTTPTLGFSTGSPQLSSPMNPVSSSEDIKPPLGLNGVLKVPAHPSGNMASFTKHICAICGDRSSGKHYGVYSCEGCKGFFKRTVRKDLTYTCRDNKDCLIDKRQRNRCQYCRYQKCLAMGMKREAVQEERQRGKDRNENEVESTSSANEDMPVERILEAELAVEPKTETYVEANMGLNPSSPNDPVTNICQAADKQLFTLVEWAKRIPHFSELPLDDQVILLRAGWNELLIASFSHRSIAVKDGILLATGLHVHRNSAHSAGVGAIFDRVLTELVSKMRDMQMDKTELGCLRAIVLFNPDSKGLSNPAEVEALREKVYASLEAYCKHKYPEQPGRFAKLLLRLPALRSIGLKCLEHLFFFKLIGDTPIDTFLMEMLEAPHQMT

[6] = target: Retinoic acid receptor RXR-beta (Homo sapiens) (UniProt P28702); experiment: Agonist activity at RXRbeta (unknown origin) transfected in african green monkey COS7 cells assessed transactivation incubated at 1 uM for 16 hrs by luciferase assay; format: cell-based
Retinoic acid receptor RXR-beta (Homo sapiens), sequence (P28702 whole entry): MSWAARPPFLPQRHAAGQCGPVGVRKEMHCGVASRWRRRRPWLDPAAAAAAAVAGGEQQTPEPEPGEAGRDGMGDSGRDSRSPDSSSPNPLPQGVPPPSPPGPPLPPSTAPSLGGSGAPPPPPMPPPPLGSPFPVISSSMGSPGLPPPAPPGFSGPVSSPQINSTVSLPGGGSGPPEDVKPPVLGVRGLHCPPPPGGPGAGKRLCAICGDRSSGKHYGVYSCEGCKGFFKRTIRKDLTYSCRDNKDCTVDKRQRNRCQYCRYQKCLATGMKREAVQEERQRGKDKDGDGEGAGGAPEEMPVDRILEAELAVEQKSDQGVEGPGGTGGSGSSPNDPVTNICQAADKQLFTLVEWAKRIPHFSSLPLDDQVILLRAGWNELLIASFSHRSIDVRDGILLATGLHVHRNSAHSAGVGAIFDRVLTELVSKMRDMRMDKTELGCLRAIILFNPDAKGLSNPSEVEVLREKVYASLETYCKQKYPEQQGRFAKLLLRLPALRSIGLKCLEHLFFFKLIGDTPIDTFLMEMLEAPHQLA

[7] = target: Retinoic acid receptor RXR-gamma (Homo sapiens) (UniProt P48443); experiment: Agonist activity at RXRgamma (unknown origin) transfected in african green monkey COS7 cells assessed transactivation incubated at 1 uM for 16 hrs by luciferase assay; format: cell-based
[8] = target: Nuclear receptor ROR-alpha (Homo sapiens) (UniProt P35398); experiment: Agonist activity at RORalpha (unknown origin) transfected in african green monkey COS7 cells assessed transactivation incubated at 1 uM for 16 hrs by luciferase assay; format: cell-based
Nuclear receptor ROR-alpha (Homo sapiens), sequence (P35398 whole entry): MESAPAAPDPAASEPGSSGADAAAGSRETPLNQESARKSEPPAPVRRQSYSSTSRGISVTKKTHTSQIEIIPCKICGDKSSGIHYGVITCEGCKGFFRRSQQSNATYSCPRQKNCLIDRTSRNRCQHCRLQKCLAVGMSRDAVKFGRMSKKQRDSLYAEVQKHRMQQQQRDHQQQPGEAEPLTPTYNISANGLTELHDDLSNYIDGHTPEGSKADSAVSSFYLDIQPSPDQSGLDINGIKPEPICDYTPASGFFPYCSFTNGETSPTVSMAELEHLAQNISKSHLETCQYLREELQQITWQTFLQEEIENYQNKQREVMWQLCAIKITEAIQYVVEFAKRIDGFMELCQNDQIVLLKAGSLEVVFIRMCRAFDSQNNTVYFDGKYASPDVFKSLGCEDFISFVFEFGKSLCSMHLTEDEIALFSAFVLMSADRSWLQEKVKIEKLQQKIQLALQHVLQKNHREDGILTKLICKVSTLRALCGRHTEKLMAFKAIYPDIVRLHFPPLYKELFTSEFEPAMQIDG

[9] = target: Nuclear receptor ROR-gamma (Homo sapiens) (UniProt P51449); experiment: Agonist activity at RORgamma (unknown origin) transfected in african green monkey COS7 cells assessed transactivation incubated at 1 uM for 16 hrs by luciferase assay; format: cell-based
Nuclear receptor ROR-gamma (Homo sapiens), sequence (P51449 whole entry): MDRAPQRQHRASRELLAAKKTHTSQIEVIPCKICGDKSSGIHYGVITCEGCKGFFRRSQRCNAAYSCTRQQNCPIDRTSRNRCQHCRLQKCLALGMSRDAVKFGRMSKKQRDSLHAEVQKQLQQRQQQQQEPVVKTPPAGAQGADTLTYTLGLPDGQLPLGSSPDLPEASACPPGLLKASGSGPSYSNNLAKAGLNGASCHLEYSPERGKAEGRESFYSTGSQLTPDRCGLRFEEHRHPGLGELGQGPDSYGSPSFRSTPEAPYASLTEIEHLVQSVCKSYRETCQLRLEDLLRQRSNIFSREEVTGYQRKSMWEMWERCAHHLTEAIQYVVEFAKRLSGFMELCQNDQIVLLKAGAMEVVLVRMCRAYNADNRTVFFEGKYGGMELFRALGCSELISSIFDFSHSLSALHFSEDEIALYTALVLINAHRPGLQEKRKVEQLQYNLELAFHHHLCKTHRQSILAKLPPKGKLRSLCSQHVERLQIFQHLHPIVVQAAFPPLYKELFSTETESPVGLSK

[10] = target: Oxysterols receptor LXR-beta (Homo sapiens) (UniProt P55055); experiment: Agonist activity at LXRbeta (unknown origin) transfected in african green monkey COS7 cells assessed transactivation incubated at 1 uM for 16 hrs by luciferase assay; format: cell-based
Oxysterols receptor LXR-beta (Homo sapiens), sequence (P55055 whole entry, the tested form may be a part): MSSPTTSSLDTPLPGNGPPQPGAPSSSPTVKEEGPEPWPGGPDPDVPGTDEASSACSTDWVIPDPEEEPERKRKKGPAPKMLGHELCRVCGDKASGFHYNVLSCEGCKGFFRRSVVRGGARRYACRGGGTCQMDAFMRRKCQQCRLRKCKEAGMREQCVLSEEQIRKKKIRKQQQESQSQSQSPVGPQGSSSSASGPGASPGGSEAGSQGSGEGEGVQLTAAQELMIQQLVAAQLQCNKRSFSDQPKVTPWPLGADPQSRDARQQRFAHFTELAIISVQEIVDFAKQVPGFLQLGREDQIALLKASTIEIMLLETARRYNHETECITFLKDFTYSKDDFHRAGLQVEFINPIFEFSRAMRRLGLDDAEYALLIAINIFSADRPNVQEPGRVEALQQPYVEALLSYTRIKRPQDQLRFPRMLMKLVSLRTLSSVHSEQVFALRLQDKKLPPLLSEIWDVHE

[11] = target: Peroxisome proliferator-activated receptor alpha (Homo sapiens) (UniProt Q07869); experiment: Binding affinity to PPARalpha LBD (unknown origin) assessed as thermal stability by measuring change in melting temperature by thermal shift assay; conditions: filed as agonist, dose 0.625-10 µM
Peroxisome proliferator-activated receptor alpha (Homo sapiens), sequence (Q07869 whole entry, the tested form may be a part): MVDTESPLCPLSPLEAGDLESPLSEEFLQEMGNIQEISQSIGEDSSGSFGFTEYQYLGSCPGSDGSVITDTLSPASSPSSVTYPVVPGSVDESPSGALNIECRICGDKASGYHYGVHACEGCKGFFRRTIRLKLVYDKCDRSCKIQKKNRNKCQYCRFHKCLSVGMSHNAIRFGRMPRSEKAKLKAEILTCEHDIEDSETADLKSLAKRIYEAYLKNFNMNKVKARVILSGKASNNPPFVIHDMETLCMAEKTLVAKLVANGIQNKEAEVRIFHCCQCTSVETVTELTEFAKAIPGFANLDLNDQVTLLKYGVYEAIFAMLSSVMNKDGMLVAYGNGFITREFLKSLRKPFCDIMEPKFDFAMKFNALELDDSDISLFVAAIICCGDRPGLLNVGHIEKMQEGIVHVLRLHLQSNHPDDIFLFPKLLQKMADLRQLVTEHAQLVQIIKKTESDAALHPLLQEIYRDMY

[12] = AUC in fasted Sprague-Dawley rat at 2 mg/kg, IV measured at 0.083 to 24 hrs by LC-MS/MS analysis; format: ADME, organism-based; design: dose 2 mg/kg, time upper 24 hrs, time lower 0.083 hrs, route iv; conditions: in vivo
[13] = AUC in fasted Sprague-Dawley rat at 10 mg/kg, po measured at 0.083 to 24 hrs by LC-MS/MS analysis; format: ADME, organism-based; design: time lower 0.083 hrs, dose 10 mg/kg, time upper 24 hrs, route po; conditions: in vivo
[14] = Mutagenicity in Salmonella typhimurium TA98 measured at 0.21 to 16.67 mg/ml for 72 hrs by mini-Ames test; format: toxicity; conditions: salmonella enterica subsp. enterica serovar typhimurium, dose 0.21-16.67 mg/ml
[15] = Down-streaming of Cyp7a1 gene expression in C57BL/6JNifdc mouse liver assessed as hepatic resorption of bile acid administered at 0.03 to 0.1 mg/kg, po for 3 days measured after 6 hrs of last administration by real-time PCR analysis; format: ADME, organism-based; conditions: in vivo, 78 h, dose 0.03-0.1 mg/kg, time 3.25 day
[16] = Upregulation of Mrp3 gene expression in C57BL/6JNifdc mouse liver assessed as increased efflux of bile acid administered at 0.03 to 0.1 mg/kg, po for 3 days measured after 6 hrs of last administration by real-time PCR analysis; format: ADME, organism-based; conditions: in vivo, 78 h, dose 0.03-0.1 mg/kg, time 3.25 day
[17] = Upregulation of Mrp4 gene expression in C57BL/6JNifdc mouse liver assessed as increased efflux of bile acid administered at 0.03 to 0.1 mg/kg, po for 3 days measured after 6 hrs of last administration by real-time PCR analysis; format: ADME, organism-based; conditions: in vivo, 78 h, dose 0.03-0.1 mg/kg, time 3.25 day
[18] = Upregulation of Mdr2 gene expression in C57BL/6JNifdc mouse liver assessed as increased efflux of bile acid administered at 0.03 to 0.1 mg/kg, po for 3 days measured after 6 hrs of last administration by real-time PCR analysis; format: ADME, organism-based; conditions: in vivo, 78 h, dose 0.03-0.1 mg/kg, time 3.25 day
[19] = Anti-cholestatic activity in ANIT-induced C57BL/6Nifdc mouse model assessed as decrease in serum total bilirubin level at 0.03 to 0.1 mg/kg, po upto 42 hrs measured after 48 hrs; format: ADME, organism-based; conditions: in vivo, 90 h, dose 0.03-0.1 mg/kg
[20] = Anti-cholestatic activity in ANIT-induced C57BL/6Nifdc mouse model assessed as decrease in liver TCDCA at 0.03 to 0.1 mg/kg, po upto 42 hrs measured after 48 hrs; format: ADME, organism-based; conditions: in vivo, 90 h, dose 0.03-0.1 mg/kg
[21] = Anti-cholestatic activity in ANIT-induced C57BL/6Nifdc mouse model assessed as decrease in liver beta-MCA at 0.03 to 0.1 mg/kg, po upto 42 hrs measured after 48 hrs; format: ADME, organism-based; conditions: in vivo, 90 h, dose 0.03-0.1 mg/kg
[22] = Anti-cholestatic activity in ANIT-induced C57BL/6Nifdc mouse model assessed as downregulation of proinflammatory Il1b gene at 0.03 to 0.1 mg/kg, po upto 42 hrs measured after 48 hrs; format: ADME, organism-based; conditions: in vivo, 90 h, dose 0.03-0.1 mg/kg
[23] = Anti-cholestatic activity in ANIT-induced C57BL/6Nifdc mouse model assessed as downregulation of proinflammatory Il6 gene at 0.03 to 0.1 mg/kg, po upto 42 hrs measured after 48 hrs; format: ADME, organism-based; conditions: in vivo, 90 h, dose 0.03-0.1 mg/kg
[24] = Anti-cholestatic activity in ANIT-induced C57BL/6Nifdc mouse model assessed as decrease in liver DHLCA at 0.03 to 0.1 mg/kg, po upto 42 hrs measured after 48 hrs; format: ADME, organism-based; conditions: in vivo, 90 h, dose 0.03-0.1 mg/kg
[25] = Anti-cholestatic activity in ANIT-induced C57BL/6Nifdc mouse model assessed as decrease in liver 3-H-7, 12-Dkca at 0.03 to 0.1 mg/kg, po upto 42 hrs measured after 48 hrs; format: ADME, organism-based; conditions: in vivo, 90 h, dose 0.03-0.1 mg/kg
[26] = Anti-cholestatic activity in ANIT-induced C57BL/6Nifdc mouse model assessed as decrease in liver TUDCA at 0.03 to 0.1 mg/kg, po upto 42 hrs measured after 48 hrs; format: ADME, organism-based; conditions: in vivo, 90 h, dose 0.03-0.1 mg/kg
[27] = Anti-fibrosis activity in Ccl4-induced C57BL/6Nifdc mouse model assessed as decrease in hydroxyproline in liver administered orally for 3 weeks; format: ADME; conditions: in vivo, po, 504 h, dose 0.03-0.1 mg/kg
[28] = Anti-fibrosis activity in Ccl4-induced C57BL/6Nifdc mouse model assessed as reversal of increased alpha-SMA administered orally for 3 weeks by Western blot analysis; format: ADME; conditions: in vivo, po, 504 h, dose 0.03-0.1 mg/kg
[29] = Anti-fibrosis activity in Ccl4-induced C57BL/6Nifdc mouse model assessed as decrease in inflammatory cells administered orally for 3 weeks; format: ADME, cell-based; conditions: in vivo, po, 504 h, dose 0.03-0.1 mg/kg
[30] = In vivo upregulation of PPAR delta in C57BL/6JNifdc mouse liver administered orally for 3 days measured after 6 hrs of last administration by real-time PCR analysis; format: ADME, organism-based; conditions: po, 78 h, dose 0.03-0.1 mg/kg
[31] = In vivo upregulation of PPAR delta in C57BL/6JNifdc mouse liver administered at 0.03 mg/kg, po for 3 days measured after 6 hrs of last administration by real-time PCR analysis; format: ADME, organism-based; conditions: 78 h

Cc1cc(CN2C(=O)CN(c3ccc(C(F)(F)F)cc3)C2=O)cc(C)c1OC(C)(C)C(=O)O
Not Active: Activity [2]
Non-Toxic: Activity [14]
Active: Activity [15] | Activity [16] | Activity [17] | Activity [18] | Activity [19] | Activity [20] | Activity [21] | Activity [22] | Activity [23] | Activity [24] | Activity [25] | Activity [26] | Activity [31]
Dose-Dependent Effect: Activity [27] | Activity [28] | Activity [29] | Activity [30]
active: deltaTm [11] Dose-Dependent Effect
22300 ng·h/mL: AUC [13]
inactive: Activity [1] | Activity [3] | Activity [4] | Activity [5] | Activity [6] | Activity [7] | Activity [8] | Activity [9] | Activity [10]
4250 ng·h/mL: AUC [12]
